Measurements published in article PMC10817917, “Alkyl deoxyglycoside-polymyxin combinations against critical priority carbapenem-resistant gram-negative bacteria” (Scientific Reports, 2024).
Values after ≈ are worked out from the molar mass of the structure shown. Where two headings read alike, the source gives them in different places.

Key:
E. coli NCTC 13846 = experiment: Broth microdilution MIC/MBC, glycosides with or without polymyxins; assay type: cell-based, Escherichia coli; settings: strain B
K. pneumoniae CQ1942 = experiment: Broth microdilution MIC, glycosides with or without polymyxins; assay type: cell-based, Klebsiella pneumoniae; settings: for MIC: Klebsiella pneumoniae, CQ1942
[1] = test system: Bacillus anthracis (Sterne, ovine and pathogenic forms), Enterococcus faecalis and Bacillus cereus; settings: Gram-positive bacteria; cited from earlier work
K. pneumoniae CQ4921 = experiment: Broth microdilution MIC/MBC, glycosides with or without polymyxins; assay type: cell-based, Klebsiella pneumoniae; settings: for MIC: Klebsiella pneumoniae, CQ4921
HEK-293T cells = experiment: Resazurin cell viability assay (cytotoxicity); assay type: cell-based, human; settings: 72 h, read-out: IC50
How it was run: (§1)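 HEK-293T and Caco-2 cells (1.5 × 10^4/well, RPMI 1640 with 10% FBS) exposed 72 h at 37 °C to glycosides at final 100 to 10 µM, alone or with PMB or colistin at final 0.5, 0.25 or 0.125 µg/mL; max DMSO 0.33%. Resazurin added 4 h, read 570/600 nm; IC50 from dose-response fits, mean ± SD of three replicates.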

Caco-2 cells = experiment: Resazurin cell viability assay (cytotoxicity); assay type: cell-based, human; settings: read-out: IC50
How it was run: as §1

E. cloacae CQ1941 = experiment: Broth microdilution MIC/MBC, glycosides with or without polymyxins; assay type: cell-based; settings: for MIC: Enterobacter cloacae, CQ1941
[2] = alone, read-out: MICA (MIC of each compound individually)
[3] = combination with the lowest FICI
[4] = compound + colistin, lowest FICI

With `CCCCCCCCCCCCO[C@H]1O[C@H](C)C[C@H](O)[C@H]1O` [Compound 1, dodecyl 4,6-dideoxy-α/β-D-xylo-hexopyranoside] the “MIC of colistin in combination with the compound” value (“MIC … with the compound” below) (E. coli NCTC 13846; Cpd conc. 0.4 μg/mL) was > 0.5 µg/mL, the “MIC … with the compound” value (E. coli NCTC 13846; Cpd conc. 0.8 μg/mL) was > 0.5 µg/mL and the “MIC … with the compound” value (E. coli NCTC 13846; Cpd conc. 3.125 μg/mL) was > 0.5 µg/mL. The “MIC … with the compound” value (E. coli NCTC 13846; Cpd conc. 6.25 μg/mL) was > 0.5 µg/mL, the “MIC … with the compound” value (E. coli NCTC 13846; Cpd conc. 12.5 μg/mL) was > 0.5 µg/mL and the “MIC … with the compound” value (E. coli NCTC 13846; Cpd conc. […]) was > 0.5 µg/mL. The MIC (E. coli NCTC 13846; Escherichia coli, NCTC13846, agent alone, no adjuvant (polymyxin conc. 0), read-out: MIC) was > 100 µg/mL, the “MIC of compound in combination with PMB” value (E. coli NCTC 13846; PMB 0.25 μg/mL) was > 100 µg/mL and the “MIC of compound in combination with PMB” value (E. coli NCTC 13846; PMB 0.5 μg/mL) was > 100 µg/mL. For the same compound, the “MIC of compound in combination with colistin” value (E. coli NCTC 13846; colistin 0.06 μg/mL) was > 100 µg/mL, the “MIC of compound in combination with colistin” value (E. coli NCTC 13846; colistin 0.125 μg/mL) was > 100 µg/mL and the “MIC of compound in combination with colistin” value (E. coli NCTC 13846; colistin 0.25 μg/mL) was > 100 µg/mL. The “MIC of compound in combination with colistin” value (E. coli NCTC 13846; colistin 0.5 μg/mL) was > 100 µg/mL, the “MIC … with the compound” value (K. pneumoniae CQ1942; Cpd conc. 0.4 μg/mL, strain E) was > 0.5 µg/mL and the “MIC … with the compound” value (K. pneumoniae CQ1942; Cpd conc. 0.8 μg/mL, strain E) was 0.5 µg/mL. For the same compound, the “MIC … with the compound” value (K. pneumoniae CQ1942; Cpd conc. 3.125 μg/mL, strain E) was 0.25 µg/mL, the “MIC … with the compound” value (K. pneumoniae CQ1942; Cpd conc. 6.25 μg/mL, strain E) was 0.25 µg/mL and the “MIC … with the compound” value (K. pneumoniae CQ1942; Cpd conc. 12.5 μg/mL, strain E) was 0.25 µg/mL. For the same compound, the “MIC … with the compound” value (K. pneumoniae CQ1942; Cpd conc. […], strain E) was 0.5 µg/mL, the MIC (K. pneumoniae CQ1942; agent alone, no adjuvant (polymyxin conc. 0), strain E, read-out: MIC) was > 100 µg/mL and the MIC (K. pneumoniae CQ1942; [2]) was > 100 µg/mL. The “MIC of compound in combination with PMB” value (K. pneumoniae CQ1942; PMB 0.25 μg/mL, strain E) was > 100 µg/mL, the “MIC of compound in combination with PMB” value (K. pneumoniae CQ1942; PMB 0.5 μg/mL, strain E) was 1.6 µg/mL and the “MIC of compound in combination with colistin” value (K. pneumoniae CQ1942; colistin 0.06 μg/mL, strain E) was > 100 µg/mL. For the same compound, the “MIC of compound in combination with colistin” value (K. pneumoniae CQ1942; colistin 0.125 μg/mL, strain E) was > 100 µg/mL, the “MIC of compound in combination with colistin” value (K. pneumoniae CQ1942; colistin 0.25 μg/mL, strain E) was 3.1 µg/mL and the “MIC of compound in combination with colistin” value (K. pneumoniae CQ1942; colistin 0.5 μg/mL, strain E) was 0.8 µg/mL. For the same compound, the “MICA(A + B) (MIC of compound in combination with colistin)” value (K. pneumoniae CQ1942; [3]) was 3.125 µg/mL, the “MICB(A + B) (MIC of colistin in combination with compound)” value (shortened to “MICB(A + B)”) (K. pneumoniae CQ1942; [3]) was 0.25 µg/mL and the “Interpretation (of FICI)” value (K. pneumoniae CQ1942; compound + colistin) was “Additive (from 0.5 to 1.0 were additive)”. The FICI (K. pneumoniae CQ1942; [4]) was 0.52, the MIC [1] was 12.6 µM (≈ 3.99 µg/mL) and the “MIC … with the compound” value (K. pneumoniae CQ4921; Cpd conc. 0.4 μg/mL, strain C) was > 0.5 µg/mL. For the same compound, the “MIC … with the compound” value (K. pneumoniae CQ4921; Cpd conc. 0.8 μg/mL, strain C) was > 0.5 µg/mL, the “MIC … with the compound” value (K. pneumoniae CQ4921; Cpd conc. 3.125 μg/mL, strain C) was 0.25 µg/mL and the “MIC … with the compound” value (K. pneumoniae CQ4921; Cpd conc. 6.25 μg/mL, strain C) was 0.25 µg/mL. The “MIC … with the compound” value (K. pneumoniae CQ4921; Cpd conc. 12.5 μg/mL, strain C) was 0.25 µg/mL, the “MIC … with the compound” value (K. pneumoniae CQ4921; Cpd conc. […], strain C) was 0.5 µg/mL and the MIC (K. pneumoniae CQ4921; agent alone, no adjuvant (polymyxin conc. 0), strain C, read-out: MIC) was > 100 µg/mL. For the same compound, the MIC (K. pneumoniae CQ4921; [2]) was > 100 µg/mL, the “MIC of compound in combination with PMB” value (K. pneumoniae CQ4921; PMB 0.25 μg/mL, strain C) was > 100 µg/mL and the “MIC of compound in combination with PMB” value (K. pneumoniae CQ4921; PMB 0.5 μg/mL, strain C) was 1.6 µg/mL. The “MIC of compound in combination with colistin” value (K. pneumoniae CQ4921; colistin 0.06 μg/mL, strain C) was > 100 µg/mL, the “MIC of compound in combination with colistin” value (K. pneumoniae CQ4921; colistin 0.125 μg/mL, strain C) was > 100 µg/mL and the “MIC of compound in combination with colistin” value (K. pneumoniae CQ4921; colistin 0.25 μg/mL, strain C) was 3.1 µg/mL. For the same compound, the “MIC of compound in combination with colistin” value (K. pneumoniae CQ4921; colistin 0.5 μg/mL, strain C) was 1.6 µg/mL, the “MICA(A + B) (MIC of compound in combination with colistin)” value (K. pneumoniae CQ4921; [3]) was 3.125 µg/mL and the “MICB(A + B)” value (K. pneumoniae CQ4921; [3]) was 0.25 µg/mL. For the same compound, the “Interpretation (of FICI)” value (K. pneumoniae CQ4921; compound + colistin) was “Additive (from 0.5 to 1.0 were additive)”, the FICI (K. pneumoniae CQ4921; [4]) was 0.52 and the IC50 (HEK-293T cells; Homo sapiens, HEK-293T, Colistin 0.25 μg/mL) was 69.4 ± 2.58 µM. It also gave an IC50 (HEK-293T cells; Homo sapiens, HEK-293T, Colistin 0.5 μg/mL) of 65.9 ± 3.75 µM, an IC50 (HEK-293T cells; Homo sapiens, HEK-293T, No polymyxin) of 65.8 ± 1.28 µM and an IC50 (HEK-293T cells; Homo sapiens, HEK-293T, PMB 0.125 μg/mL) of 64.6 ± 0.87 µM. It also gave an IC50 (HEK-293T cells; Homo sapiens, HEK-293T, PMB 0.25 μg/mL) of 65.32 ± 0.4 µM, an IC50 (HEK-293T cells; Homo sapiens, HEK-293T, PMB 0.5 μg/mL) of 67.7 ± 1.22 µM and an IC50 (HEK-293T cells; Homo sapiens, HEK-293T, tested alone (no polymyxin adjuvant)) of 20.8 µg/mL. For the same compound, the IC50 (HEK-293T cells; No polymyxin) was 65.8 µM, the IC50 (Caco-2 cells; Homo sapiens, Caco-2, 72 h, Colistin 0.25 μg/mL) was 54.7 ± 1.04 µM and the IC50 (Caco-2 cells; Homo sapiens, Caco-2, 72 h, Colistin 0.5 μg/mL) was 52.5 ± 2.28 µM. The IC50 (Caco-2 cells; Homo sapiens, Caco-2, 72 h, No polymyxin) was 54.2 ± 2.77 µM, the IC50 (Caco-2 cells; Homo sapiens, Caco-2, 72 h, PMB 0.25 μg/mL) was 50.5 ± 0.15 µM and the IC50 (Caco-2 cells; Homo sapiens, Caco-2, 72 h, PMB 0.5 μg/mL) was 52.2 ± 1.77 µM. The IC50 (Caco-2 cells; Homo sapiens, Caco-2, 72 h, tested alone (no polymyxin adjuvant)) was 17.2 µg/mL, the IC50 (Caco-2 cells; No polymyxin, 72 h) was 54.3 µM and the “MIC … with the compound” value (E. cloacae CQ1941; Cpd conc. 0.4 μg/mL, strain D) was > 0.5 µg/mL. For the same compound, the “MIC … with the compound” value (E. cloacae CQ1941; Cpd conc. 0.8 μg/mL, strain D) was 0.5 µg/mL, the “MIC … with the compound” value (E. cloacae CQ1941; Cpd conc. 3.125 μg/mL, strain D) was 0.25 µg/mL and the “MIC … with the compound” value (E. cloacae CQ1941; Cpd conc. 6.25 μg/mL, strain D) was 0.25 µg/mL. For the same compound, the “MIC … with the compound” value (E. cloacae CQ1941; Cpd conc. 12.5 μg/mL, strain D) was 0.25 µg/mL, the “MIC … with the compound” value (E. cloacae CQ1941; Cpd conc. […], strain D) was 0.25 µg/mL and the MIC (E. cloacae CQ1941; agent alone, no adjuvant (polymyxin conc. 0), strain D, read-out: MIC) was > 100 µg/mL. For the same compound, the MIC (E. cloacae CQ1941; [2]) was > 100 µg/mL, the “MIC of compound in combination with PMB” value (E. cloacae CQ1941; PMB 0.25 μg/mL, strain D) was > 100 µg/mL and the “MIC of compound in combination with PMB” value (E. cloacae CQ1941; PMB 0.5 μg/mL, strain D) was 1.6 µg/mL. For the same compound, the “MIC of compound in combination with colistin” value (E. cloacae CQ1941; colistin 0.06 μg/mL, strain D) was > 100 µg/mL, the “MIC of compound in combination with colistin” value (E. cloacae CQ1941; colistin 0.125 μg/mL, strain D) was > 100 µg/mL and the “MIC of compound in combination with colistin” value (E. cloacae CQ1941; colistin 0.25 μg/mL, strain D) was 1.6 µg/mL. For the same compound, the “MIC of compound in combination with colistin” value (E. cloacae CQ1941; colistin 0.5 μg/mL, strain D) was 0.8 µg/mL, the “MICB(A + B)” value (E. cloacae CQ1941; [3]) was 0.25 µg/mL and the “Interpretation (of FICI)” value (E. cloacae CQ1941; compound + colistin) was “Additive (from 0.5 to 1.0 were additive)”. The FICI (E. cloacae CQ1941; [4]) was 0.52.
